Measured values as given in article PMC12705620 (Frontiers in Pharmacology, 2025).

How the values were obtained:
[1] = test system: human erythrocytes; assay: Hemolytic activity; assay type: cell-based; conditions: 1% human erythrocytes in PBS, 45 min, 37 °C, absorbance 540 nm, 30% lysis threshold, peptides up to 60 µM, triplicate, single donor
Protocol: Whole blood was collected from healthy volunteers after obtaining informed consent, using Vacuette EDTA tubes (Greiner Bio-One). […] For hemolytic assessment, 180 μL of the prepared erythrocyte suspension was mixed with 20 μL of serially diluted peptide solutions (ranging from 60 to 0.03 μM in PBS).

[2] = test system: S. aureus JAR060131; assay: Bactericidal (time-kill) kinetics; assay type: cell-based, Staphylococcus aureus; conditions: 3.75 µM peptide, 1 × 10^6 CFU/mL
Protocol: (§1) Time-kill kinetics were evaluated against S. aureus JAR060131 and A. baumannii RUH875. Mid-logarithmic phase bacterial cultures were diluted to a final concentration of 1 × 10^6 CFU/mL in PBS. Bacteria were incubated with 0.5-, 2-, and 4-fold the LC99.9. Assays were conducted in polypropylene tubes (Micronics) with a total volume of 500 µL. Control samples consisted of bacteria incubated in PBS alone. At 1, 5, 30, and 120 min, 50 µL samples were collected and immediately added to 50 µL of 0.05% (v/v) sodium polyanethol sulfonate (SPS; Sigma-Aldrich) in PBS to neutralize residual peptide activity ([Dankert et al., 1995]). Viable bacterial counts were determined by plating 10 µL of serial 10-fold dilutions onto BA plates. Colonies were counted after 24 h of incubation at 37 °C. All conditions were performed in triplicate.

[3] = test system: A. baumannii RUH875; assay: Bactericidal (time-kill) kinetics; assay type: cell-based, Acinetobacter baumannii; conditions: within 1 min at 3.75 µM
Protocol: as §1

[4] = test system: HaCaT human keratinocytes; assay: Cytotoxicity (WST-1 and LDH); assay type: cell-based; conditions: 24 h exposure, triplicate
Protocol: (§2) Cells (5 × 10^5 cells/mL) were seeded in 96-well plates (100 μL/well; Thermo Scientific) and allowed to adhere for 24 h. After adhesion, monolayers were exposed to two-fold serial dilutions of the tetrameric and reference peptides (final concentrations: 60–0.05 µM) in fresh DMEM containing 2% (v/v) FBS, and incubated for 24 h at 37 °C in a humidified 5% CO2 atmosphere. Cell viability was assessed using the water-soluble tetrazolium salt (WST-1; Roche) assay, and membrane integrity was measured using the lactate dehydrogenase (LDH) release assay (Abcam), following manufacturer instructions. Absorbance was measured using the Synergy H1 microplate reader (Biotek). Results are expressed as percentages relative to untreated control (for WST-1) and positive lysis control (for LDH) and all experiments were performed in triplicate.

[5] = test system: human skin fibroblast cells (BJ); assay: Cytotoxicity (WST-1 and LDH); assay type: cell-based; conditions: 24 h exposure, triplicate
Protocol: as §2

[6] = test system: human keratinocytes and dermal fibroblasts; assay: Cytotoxicity summary over human skin cells; assay type: cell-based; conditions: 24 h
Protocol: as §2

[7] = test system: S. aureus LUH14616 (MRSA); assay: Ex vivo human skin wound infection model; set-up: species or system Staphylococcus aureus; conditions: 200 µM topical, 4 h treatment, versus untreated control (Figure 4C), p < 0.001
From the text: Human skin from 3 donors was obtained via the Residual Tissue Biobank of the Red Cross Hospital (Beverwijk, Netherlands). The use of these coded, post-operative residual tissue samples was approved by patients through the informed opt-out-plus protocol of the Red Cross Hospital Skin ([Code-of-Conduct-for-Health-Research, 2022]) and processed for an ex vivo wound infection model as described ([Dijksteel et al., 2020]). The Wounded skin grafts were sectioned into approximately 1 cm^2 samples using a sterile scalpel and were decontaminated by immersion in 70% ethanol for 30 min, followed by three PBS washes. Samples were placed dermis-down and wound-side-up on stainless steel grids with central indentations, positioned in 12-well plates, and cultured at the air–liquid interface in DMEM at 37 °C and 5% CO2. To confine reagents to the wound area, a resin barrier (OpalDam; Ultradent) was applied to the wounded area and polymerized using a hand-held UV light (Valo X) for 10 s. The wounds were then topically infected with 10 µL of S. aureus LUH14616 suspension of 1 × 10^7 CFU/mL (final dose: 1 × 10^5 CFU/graft) in PBS for 1 h, followed by topical application of 10 µL of peptide solution for 4 h. Chlorhexidine (0.5% (v/v) in 70% ethanol; Entick B.V.) and PBS were used as positive and negative controls, respectively. After treatment, tissue samples were transferred to polypropylene vials containing 1 mL PBS supplemented with 0.025% (v/v) SPS and a 7 mm stainless steel bead. Homogenization was performed using a MagnaLyser System (Roche) with three 30-s cycles at 7,000 rpm, with 30 s of cooling on ice between cycles. Homogenates were 10-fold serially diluted in PBS, and 100 µL aliquots were plated on BA plates. CFUs were enumerated after overnight incubation at 37 °C.

[8] = DMEM 2% FBS, concentration causing >30% membrane permeation
[9] = WST-1, concentration causing <70% metabolic activity

Question: How did the “Hemolytic concentration (HC) < 30%” value [1] turn out when “Ac-LKRVWKRVFKLLKRYWRQLKKPVR-NH2 (N-terminus and C-terminus assumed) [SAAP-148, reference compound]” was run?
Answer: 0.47 µM

Question: What about the “Time to complete killing” value [2] of the same substance?
Answer: ≤ 5 min

Question: What about the “Log reduction in CFU” value [3] of the same substance?
Answer: > 3 log

Question: What about the “Cytotoxicity, LDH leakage” value [4, 8] of the same substance?
Answer: 3.75 µM

Question: What about the “Cytotoxicity, Metabolic activity” value [4, 9] of the same substance?
Answer: 3.75 µM

Question: And the “Cytotoxicity, LDH leakage” value [5, 8]?
Answer: 1.88 µM

Question: And the “Cytotoxicity, Metabolic activity” value [5, 9]?
Answer: 3.75 µM

Question: And the “Cytotoxic thresholds, WST-1 and LDH” value [6]?
Answer: 1.88 to 3.75 µM

Question: What about the “Reduction of bacterial load (CFU counts)” value [7] of the same substance?
Answer: significantly reduced bacterial load
